Source: patent US5416070A, “Composition for macrophage activation” (ImmunoTherapeutics, Inc., priority 1990, dated 1995)

Test system: Meth A sarcoma
Experiment: Effect with lipopolysaccharide on growth of Meth A sarcoma in mice
Type: in vivo
Description: BALB/C mice 7-8 weeks of age were injected subcutaneously with Meth A sarcoma (1×10^6 cells) and treated intravenously on day 8 with 10 μg of lipopolysaccharide (LPS) from Salmonella typhimurium ReG 30/21 alone or combined with 1 or 10 μg of MDP or Compound IIA. Tumor growth was compared on day 6 following therapy.
The animals were followed and the percent cured determined at 60 days post-injection.

[1] = 1.0 μg combined with 10 μg LPS i.v. on day 8
[2] = 10 μg combined with 10 μg LPS i.v. on day 8

SMILES: CCCCCCCCCCCCCCCC(=O)OCC(COC(=O)C(C)NC(=O)CCC(NC(=O)C(C)NC(=O)C(C)OC1C(NC(C)=O)C(O)OC(CO)C1OC1OC(CO)C(O)C(O)C1NC(C)=O)C(N)=O)OC(=O)CCCCCCCCCCCCCCC [Compound IIA, 4-O-[2-acetamido-2-deoxy-β-D-glucopyranosyl]-2-acetamido-2-deoxy-3-O-[D-2-propanoyl-L-alanyl-D-isoglutaminyl-L-alanyl-1,2-dipalmitoyl-sn-glycerol]-D-glucopyranose]
- Complete Regression at Day 60 [1]: 50%
- Percent Change in Average Tumor Area 6 Days Post Treatment [1]: -56%
- Complete Regression at Day 60 [2]: 100%
- Percent Change in Average Tumor Area 6 Days Post Treatment [2]: -67%
- interaction with LPS (Table 3, Meth A sarcoma): synergistic activity
